Values joined by “and” are separate entries in the source; they are usually repeats but may differ in a detail not shown here. Equal entries are not always repeated.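 Method: 48-hour compound exposure of cells in 96-well plates, five concentrations, linear interpolation of endpoints. GI50: concentration for 50% inhibition of growth. TGI denotes the concentration required for complete inhibition of growth.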
Key:
Assay in all cases: inhibition of tumour cell growth, NCI panel, 48 h
ACHN renal = system: ACHN renal
KM20L2 colon = system: KM20L2 colon
RXF 393 renal = system: RXF 393 renal
HL-60(TB) leukemia = system: HL-60(TB) leukemia
UACC-257 melanoma = system: UACC-257 melanoma
OVCAR-4 ovarian = system: OVCAR-4 ovarian
SK-MEL-2 melanoma = system: SK-MEL-2 melanoma
M19-MEL melanoma = system: M19-MEL melanoma
NCI-H460 lung = system: NCI-H460 lung
MDA-MB-231 breast = system: MDA-MB-231 breast

SMILES	TGI (ACHN renal)	TGI (KM20L2 colon) [µM]	TGI (RXF 393 renal)	TGI (HL-60(TB) leukemia) [µM]	TGI (UACC-257 melanoma)	TGI (OVCAR-4 ovarian)	TGI (SK-MEL-2 melanoma) [µM]	TGI (M19-MEL melanoma)	TGI (NCI-H460 lung) [µM]	GI50 (ACHN renal) [µM]	GI50 (KM20L2 colon) [µM]	GI50 (HL-60(TB) leukemia) [µM]	GI50 (UACC-257 melanoma) [µM]	GI50 (OVCAR-4 ovarian) [µM]	GI50 (SK-MEL-2 melanoma) [µM]	GI50 (M19-MEL melanoma) [µM]	GI50 (NCI-H460 lung) [µM]	GI50 (RXF 393 renal) [µM]	TGI (MDA-MB-231 breast) [µM]
O=C(CCN1CCN(c2ccccc2)CC1)N1CCc2c([nH]c3ccccc23)C1c1cccnc1 (stereo not given)	40 µM	29.5	61 µM	33.6	31.5 µM	33 µM	30.4	37.1 µM	34.4										
COC(=O)C(C(=O)C(=O)Nc1ccc([N+](=O)[O-])cc1[N+](=O)[O-])c1nc2ccc(Cl)cc2[nH]c1=O (stereo not given)	> 100 µM	> 100	> 100 µM	> 100	> 100 µM	> 100 µM	> 100	> 100 µM	> 100										
CCC[CH2][Sn]1([CH2]CCC)[O]CC(CN(C)Cc2ccccc2)[O]1 (stereo not given)	23.3 µM	26	23.1 µM	2.08	20.2 µM	23 µM	15.9	19.8 µM	30.3	11.2	12	0.473	7.85	10.7	4.27	6.73	16.4		
Cc1cccc(C(C)(C)C)c1NC(=O)CC1C(=O)Nc2ccccc2S1(=O)=O (stereo not given)	22.7 µM	22.3	29 µM	10.7	> 100 µM	25.5 µM	21.2	24.8 µM	24.1										
CC(=O)C1C(c2ccc(N(C)C)cc2)c2cc3c(cc2OC1(C)O)OCO3 (stereo not given)	> 100 µM	26.6	> 100 µM	58.2	> 100 µM	> 100 µM	> 100	> 100 µM	> 100										
CCC/C(=N\NC(=S)N1CC2CCC(CC2)C1)c1ccccn1	2.72 µM and 2.09 µM		1.34 µM and 0.518 µM		0.197 µM and 1.35 µM	0.897 µM and 0.702 µM		0.298 µM and 1.46 µM	0.927	0.0808	0.0165			0.119	1.02			0.0356	2.75
COC(=O)C(C(=O)OC)C1CCCC(=O)C1 (stereo not given)	> 100 µM	> 100	> 100 µM	> 100	> 100 µM	> 100 µM	0.503	> 100 µM	> 100										
Cc1ccc(NC(=O)CC2Sc3ccccc3NC2=O)c(C)c1 (stereo not given)	41 µM	30.5	31 µM	8.35	39.7 µM	48.1 µM	18.2	48.2 µM	32.4										
O=C(c1ccccc1)C1OC12C(=O)Nc1c(Cl)cc(Cl)cc12 (stereo not given)	> 85.1 µM	> 100	> 100 µM	36	> 100 µM	> 39.9 µM	> 100	> 77.6 µM	> 100										
Cc1ccc(S(=O)(=O)NC2(C=O)CCCC3CCCCC32)cc1 (stereo not given)	> 100 µM	> 100	> 100 µM	> 100	> 100 µM	> 100 µM	> 100	> 100 µM	> 100										
CC(Nc1ccc(S(=O)(=O)N=C(N)N)cc1)c1c2ccccc2nc2ccccc12 (stereo not given)	> 100 µM	> 100	85.3 µM	39.2	97.6 µM	31.3 µM	61.9	> 100 µM	83.8										
